# Source: the supplement of paper PMC12463676, “Small-molecule dissolution of stress granules by redox modulation benefits ALS models” (Nature Chemical Biology, 2025)
# What was measured:
# [1] = compound: O=[As]([O-])(O)O.[K+] [potassium arsenate]; experiment: thermal stability z-score vs DMSO; higher = more thermally stabilized by treatment; conditions: HeLa; arsenate concentration 1 mM
# Experimental: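 Cellular thermal proteome profiling in HeLa cells treated with 1 mM arsenate for 1 h (DMSO pretreatment), heated to ten temperatures (37-66.3 °C). Soluble protein was quantified by TMT mass spectrometry relative to DMSO controls; the thermal stability score was transformed to a z-score; mean of n = 3 experiments.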
# [2] = compound: NC(=O)CCCCC1CCSS1 [lipoamide]; experiment: as above; conditions: HeLa, lipoamide concentration 100 µM
# Experimental: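 Cellular thermal proteome profiling in HeLa cells. Cells were treated with 100 µM lipoamide for 1 h, with or without 1 mM arsenate for a further 1 h, then heated to ten temperatures (37-66.3 °C), and soluble protein was quantified by TMT mass spectrometry relative to 0.1% DMSO controls. The thermal stability score (sum of log2 fold changes minus the abundance score) was transformed to a z-score; mean of n = 3 experiments.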
# [3] = arsenate co-treatment: 1 mM arsenate 1 h
# 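Note: each temperature applied for 3 min, abundance score taken as mean log2 fold change at the two lowest temperatures, z-score obtained by mean subtraction and division by SD.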
# Chain of UniProt O60232 (O60232 whole entry): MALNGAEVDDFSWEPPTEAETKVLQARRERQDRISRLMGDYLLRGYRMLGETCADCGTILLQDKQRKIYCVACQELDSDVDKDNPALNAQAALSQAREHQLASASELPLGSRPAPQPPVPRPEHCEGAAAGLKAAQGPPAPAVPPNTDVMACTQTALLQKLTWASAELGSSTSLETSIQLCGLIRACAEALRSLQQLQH
# Chain of UniProt Q96FJ0 (Q96FJ0 whole entry): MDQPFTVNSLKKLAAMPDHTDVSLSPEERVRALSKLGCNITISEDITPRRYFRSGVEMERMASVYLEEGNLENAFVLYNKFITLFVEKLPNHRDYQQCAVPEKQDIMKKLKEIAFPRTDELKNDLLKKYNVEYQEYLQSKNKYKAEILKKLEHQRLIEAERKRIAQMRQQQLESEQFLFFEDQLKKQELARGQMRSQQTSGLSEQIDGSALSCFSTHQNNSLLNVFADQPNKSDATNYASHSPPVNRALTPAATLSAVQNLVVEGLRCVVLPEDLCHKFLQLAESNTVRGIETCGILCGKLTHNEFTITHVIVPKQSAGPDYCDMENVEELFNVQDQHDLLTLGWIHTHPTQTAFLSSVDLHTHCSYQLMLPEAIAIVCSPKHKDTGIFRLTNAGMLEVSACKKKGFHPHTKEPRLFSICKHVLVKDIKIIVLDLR
# Chain of UniProt P16949 (P16949 whole entry): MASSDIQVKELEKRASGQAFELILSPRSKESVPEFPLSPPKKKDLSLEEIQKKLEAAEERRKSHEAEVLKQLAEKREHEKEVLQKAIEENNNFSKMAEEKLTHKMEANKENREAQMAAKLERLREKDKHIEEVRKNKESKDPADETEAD
# Chain of UniProt O00506 (O00506 whole entry, looked up): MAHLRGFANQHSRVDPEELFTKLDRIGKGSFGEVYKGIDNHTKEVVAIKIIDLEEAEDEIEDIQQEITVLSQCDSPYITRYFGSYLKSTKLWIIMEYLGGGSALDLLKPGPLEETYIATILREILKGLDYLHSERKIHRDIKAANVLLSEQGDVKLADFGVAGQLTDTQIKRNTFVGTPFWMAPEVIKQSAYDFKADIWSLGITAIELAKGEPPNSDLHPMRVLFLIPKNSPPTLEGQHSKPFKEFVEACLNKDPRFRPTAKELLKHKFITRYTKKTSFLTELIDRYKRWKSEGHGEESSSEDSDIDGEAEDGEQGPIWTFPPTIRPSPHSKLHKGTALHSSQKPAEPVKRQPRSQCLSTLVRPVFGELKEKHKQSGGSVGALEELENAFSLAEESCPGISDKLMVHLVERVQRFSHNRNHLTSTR
# Chain of UniProt O95210 (O95210 whole entry): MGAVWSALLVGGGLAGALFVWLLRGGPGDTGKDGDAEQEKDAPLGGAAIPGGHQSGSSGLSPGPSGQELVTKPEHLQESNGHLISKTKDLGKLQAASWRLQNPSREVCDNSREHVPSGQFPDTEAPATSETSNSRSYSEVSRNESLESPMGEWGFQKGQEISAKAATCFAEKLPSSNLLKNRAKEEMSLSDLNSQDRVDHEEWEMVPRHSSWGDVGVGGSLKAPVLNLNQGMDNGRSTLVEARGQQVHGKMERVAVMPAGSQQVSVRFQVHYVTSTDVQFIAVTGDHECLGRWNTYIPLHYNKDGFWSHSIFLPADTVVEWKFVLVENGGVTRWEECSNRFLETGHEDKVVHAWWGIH
# Chain of UniProt Q8N1F8 (Q8N1F8 whole entry): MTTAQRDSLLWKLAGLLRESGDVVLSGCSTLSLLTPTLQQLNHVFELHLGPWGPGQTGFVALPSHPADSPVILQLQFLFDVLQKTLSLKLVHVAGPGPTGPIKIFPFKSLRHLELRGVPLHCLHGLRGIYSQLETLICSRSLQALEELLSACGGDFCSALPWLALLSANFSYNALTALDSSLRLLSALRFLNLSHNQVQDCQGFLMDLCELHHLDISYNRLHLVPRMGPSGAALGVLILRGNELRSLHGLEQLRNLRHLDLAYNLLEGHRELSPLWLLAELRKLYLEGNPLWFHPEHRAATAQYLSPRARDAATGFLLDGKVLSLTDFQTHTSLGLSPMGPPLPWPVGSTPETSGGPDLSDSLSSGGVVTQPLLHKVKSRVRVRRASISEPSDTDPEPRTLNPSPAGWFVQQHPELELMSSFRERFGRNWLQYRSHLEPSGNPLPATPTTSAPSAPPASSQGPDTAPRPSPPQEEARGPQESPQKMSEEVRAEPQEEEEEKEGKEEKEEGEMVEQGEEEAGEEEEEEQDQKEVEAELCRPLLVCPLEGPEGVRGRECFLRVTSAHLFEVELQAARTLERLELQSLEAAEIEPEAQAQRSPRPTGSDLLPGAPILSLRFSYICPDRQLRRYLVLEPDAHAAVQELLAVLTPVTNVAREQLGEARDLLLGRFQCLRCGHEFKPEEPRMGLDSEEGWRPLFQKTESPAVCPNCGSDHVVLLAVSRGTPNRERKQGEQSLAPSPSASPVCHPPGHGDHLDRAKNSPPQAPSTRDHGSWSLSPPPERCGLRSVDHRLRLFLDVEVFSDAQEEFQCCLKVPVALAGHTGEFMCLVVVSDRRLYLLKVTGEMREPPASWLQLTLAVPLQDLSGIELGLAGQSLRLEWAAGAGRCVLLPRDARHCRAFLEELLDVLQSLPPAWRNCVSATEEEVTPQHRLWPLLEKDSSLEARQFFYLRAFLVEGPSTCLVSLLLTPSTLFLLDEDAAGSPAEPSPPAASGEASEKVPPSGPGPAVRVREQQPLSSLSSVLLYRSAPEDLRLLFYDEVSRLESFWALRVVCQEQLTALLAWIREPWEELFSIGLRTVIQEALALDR
# Chain of UniProt P51571 (P51571 whole entry): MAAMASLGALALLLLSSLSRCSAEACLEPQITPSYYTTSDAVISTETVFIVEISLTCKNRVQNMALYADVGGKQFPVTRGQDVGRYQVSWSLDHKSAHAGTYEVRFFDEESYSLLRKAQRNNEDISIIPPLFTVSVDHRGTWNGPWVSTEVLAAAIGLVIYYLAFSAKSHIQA
# Chain of UniProt P05455 (P05455 whole entry): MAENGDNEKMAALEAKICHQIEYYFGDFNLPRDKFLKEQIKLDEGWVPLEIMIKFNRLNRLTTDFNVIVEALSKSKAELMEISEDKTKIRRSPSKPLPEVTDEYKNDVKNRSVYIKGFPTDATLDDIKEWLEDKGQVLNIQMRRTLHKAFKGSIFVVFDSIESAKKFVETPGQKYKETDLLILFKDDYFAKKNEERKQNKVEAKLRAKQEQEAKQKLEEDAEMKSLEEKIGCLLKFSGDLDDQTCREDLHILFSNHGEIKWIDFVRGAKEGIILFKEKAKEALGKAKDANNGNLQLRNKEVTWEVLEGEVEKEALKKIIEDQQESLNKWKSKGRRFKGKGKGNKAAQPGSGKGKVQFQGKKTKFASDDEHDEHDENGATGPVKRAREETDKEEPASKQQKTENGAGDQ
# Chain of UniProt P50502 (P50502 whole entry): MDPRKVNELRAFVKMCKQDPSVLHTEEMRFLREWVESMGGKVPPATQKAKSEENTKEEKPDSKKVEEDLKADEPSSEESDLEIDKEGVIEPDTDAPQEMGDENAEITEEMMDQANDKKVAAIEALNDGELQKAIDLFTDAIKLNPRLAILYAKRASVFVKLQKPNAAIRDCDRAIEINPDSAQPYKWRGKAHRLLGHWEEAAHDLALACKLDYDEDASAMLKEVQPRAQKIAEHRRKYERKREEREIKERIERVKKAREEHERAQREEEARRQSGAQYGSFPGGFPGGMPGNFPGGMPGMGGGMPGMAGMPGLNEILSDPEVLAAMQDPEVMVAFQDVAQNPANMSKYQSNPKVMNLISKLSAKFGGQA
# Chain of UniProt P27105 (P27105 whole entry): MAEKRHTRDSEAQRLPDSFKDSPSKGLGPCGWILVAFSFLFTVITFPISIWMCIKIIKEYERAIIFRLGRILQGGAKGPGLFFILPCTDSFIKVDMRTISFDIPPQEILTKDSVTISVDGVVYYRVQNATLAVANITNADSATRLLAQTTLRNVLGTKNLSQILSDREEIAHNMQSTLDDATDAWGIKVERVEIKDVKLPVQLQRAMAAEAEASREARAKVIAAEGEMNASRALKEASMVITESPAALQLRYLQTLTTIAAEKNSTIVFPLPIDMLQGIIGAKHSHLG
# Chain of UniProt Q13243 (Q13243 whole entry): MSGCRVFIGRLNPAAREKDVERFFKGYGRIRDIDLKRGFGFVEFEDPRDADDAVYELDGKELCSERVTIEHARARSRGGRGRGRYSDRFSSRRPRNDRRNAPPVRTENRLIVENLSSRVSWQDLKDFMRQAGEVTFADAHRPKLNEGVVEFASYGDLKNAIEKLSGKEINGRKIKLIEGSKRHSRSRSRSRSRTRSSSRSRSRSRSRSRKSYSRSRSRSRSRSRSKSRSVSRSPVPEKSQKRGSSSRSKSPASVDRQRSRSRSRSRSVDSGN
# Chain of UniProt O75494 (O75494 whole entry): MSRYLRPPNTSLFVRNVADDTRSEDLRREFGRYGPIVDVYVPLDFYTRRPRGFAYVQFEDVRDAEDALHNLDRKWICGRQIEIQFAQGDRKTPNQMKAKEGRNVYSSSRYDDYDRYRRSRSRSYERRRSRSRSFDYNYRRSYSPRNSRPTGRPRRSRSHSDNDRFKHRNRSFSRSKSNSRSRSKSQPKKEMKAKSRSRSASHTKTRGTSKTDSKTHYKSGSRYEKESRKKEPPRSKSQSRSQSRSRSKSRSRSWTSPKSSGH
# Chain of UniProt Q16629 (Q16629 whole entry): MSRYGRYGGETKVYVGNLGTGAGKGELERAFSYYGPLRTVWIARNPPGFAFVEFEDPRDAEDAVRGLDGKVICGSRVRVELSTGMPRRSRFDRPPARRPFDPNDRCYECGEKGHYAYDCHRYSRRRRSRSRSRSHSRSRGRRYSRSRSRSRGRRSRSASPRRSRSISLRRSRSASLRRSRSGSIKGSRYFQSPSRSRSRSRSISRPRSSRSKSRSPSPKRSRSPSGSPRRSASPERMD
# Chain of UniProt Q01130 (Q01130 whole entry): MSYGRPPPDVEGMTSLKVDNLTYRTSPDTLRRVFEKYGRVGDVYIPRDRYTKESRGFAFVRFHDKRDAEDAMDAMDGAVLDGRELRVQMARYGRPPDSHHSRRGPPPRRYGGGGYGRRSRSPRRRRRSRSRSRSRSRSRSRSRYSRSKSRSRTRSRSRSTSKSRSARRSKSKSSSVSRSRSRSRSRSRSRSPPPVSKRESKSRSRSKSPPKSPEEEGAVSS
Target,thermal stability z-score [1],"thermal stability z-score [2, 3]",thermal stability z-score ([2]; arsenate co-treatment: none)
SRPRB (UniProt Q9Y5M8),1.49,-0.411,0.511
SRR (UniProt Q9GZT4),-0.393,-0.139,-0.118
SRRM1 (UniProt Q8IYB3),-2.14,0.79,0.714
SRRM2 (UniProt Q9UQ35),-0.494,2.25,1.42
SRRT (UniProt Q9BXP5),-0.751,0.06,0.206
SRSF1 (UniProt Q07955),-0.17,2.02,0.446
SRSF2 (UniProt Q01130),-0.0469,0.414,0.274
SRSF3 (UniProt P84103),-0.485,1.69,0.987
SRSF4 (UniProt Q08170),-0.0178,1.95,1.28
SRSF5 (UniProt Q13243),-1.82,0.765,0.508
SRSF6 (UniProt Q13247),-0.598,1.75,1.04
SRSF7 (UniProt Q16629),0.182,1.94,0.776
SRSF9 (UniProt Q13242),0.0934,2.14,0.947
SRSF10 (UniProt O75494),2.99,1.16,0.452
SRSF11 (UniProt Q05519),0.0211,0.00966,0.41
SRXN1 (UniProt Q9BYN0),0.115,0.0621,-0.041
SSB (UniProt P05455),0.363,-0.542,0.233
SSBP1 (UniProt Q04837),1.94,1.55,0.76
SSBP4 (UniProt Q9BWG4),-0.402,1.24,1.21
SSFA2 (UniProt P28290),-0.392,-0.0444,-0.00989
SSH3 (UniProt Q8TE77),-0.0687,0.153,-0.0576
SSNA1 (UniProt O43805),1.34,1.6,1.39
SSR1 (UniProt P43307),-1.26,-1.49,-0.782
SSR2 (UniProt P43308),0.191,0.441,-0.158

Target,thermal stability z-score [1],"thermal stability z-score [2, 3]",thermal stability z-score ([2]; arsenate co-treatment: none)
SSR3 (UniProt Q9UNL2),0.0314,-0.665,-0.443
SSR4 (UniProt P51571),-0.649,-1.7,-1.43
SSRP1 (UniProt Q08945),1.4,1.24,2.15
SSSCA1 (UniProt O60232),0.0653,1.33,1.12
SSU72 (UniProt Q9NP77),-0.473,-0.256,-0.465
SSX2IP (UniProt Q9Y2D8),-0.0542,-0.271,-0.143
ST3GAL4 (UniProt Q11206),0.726,-0.112,0.0672
ST7 (UniProt Q9NRC1),-1.16,-0.0918,0.0296
ST13 (UniProt P50502),0.962,0.433,0.404
STAG1 (UniProt Q8WVM7),-0.00763,0.115,-0.148
STAG2 (UniProt Q8N3U4),-0.0489,0.281,0.393
STAM2 (UniProt O75886),0.249,0.291,-0.113
STAM (UniProt Q92783),-0.0683,-0.258,0.0211
STAMBP (UniProt O95630),1.23,-0.0484,-7.9e-05
STAMBPL1 (UniProt Q96FJ0),1.05,0.417,0.511
STARD7 (UniProt Q9NQZ5),1.07,0.0874,1.42
STAT1 (UniProt P42224),0.502,-0.65,-0.206
STAT2 (UniProt P52630),0.171,-0.0423,0.0157
STAT3 (UniProt P40763),0.426,0.0355,-0.181
STAT5A (UniProt P42229),0.0163,-0.0259,0.314
STAT5B (UniProt P51692),0.0458,-0.378,-0.11
STAT6 (UniProt P42226),0.472,0.0546,-0.269
STAU1 (UniProt O95793),-0.275,-1.06,-0.199
STAU2 (UniProt Q9NUL3),-0.323,-0.183,-0.124

Target,thermal stability z-score [1],"thermal stability z-score [2, 3]",thermal stability z-score ([2]; arsenate co-treatment: none)
STBD1 (UniProt O95210),0.149,-0.616,0.112
STEAP3 (UniProt Q658P3),-0.122,0.104,0.572
STEAP4 (UniProt Q687X5),0.565,0.438,0.75
STIM1 (UniProt Q13586),0.0811,-1.28,-1.03
STIM2 (UniProt Q9P246),-0.103,-0.102,-0.0704
STIP1 (UniProt P31948),-0.157,0.275,0.371
STK3 (UniProt Q13188),0.098,-0.139,-0.0255
STK4 (UniProt Q13043),-0.188,0.0921,-0.0308
STK10 (UniProt O94804),0.146,-0.201,-0.0461
STK11IP (UniProt Q8N1F8),0.324,-0.747,-0.512
STK17A (UniProt Q9UEE5),0.0862,-0.0669,-0.0755
STK24 (UniProt Q9Y6E0),0.0137,0.0491,-0.118
STK25 (UniProt O00506),0.496,0.466,-0.862
STK26 (UniProt Q9P289),1.4,0.681,1.24
STK38 (UniProt Q15208),-0.182,-0.703,-0.424
STK38L (UniProt Q9Y2H1),0.201,0.0467,0.0651
STMN1 (UniProt P16949),0.78,1.14,1.18
STOM (UniProt P27105),0.0471,-0.123,0.354
STOML2 (UniProt Q9UJZ1),-0.147,-0.324,0.0393
STRAP (UniProt Q9Y3F4),-0.875,0.312,0.0419
STRBP (UniProt Q96SI9),0.571,0.867,0.71
STRIP1 (UniProt Q5VSL9),1.36,0.978,1.5
STRN3 (UniProt Q13033),0.326,0.231,0.318
